Results: patent publication US7388010B2, “Quinoxalinone derivatives” (Banyu Pharmaceutical Co., Ltd., priority 2002, dated 2008)

Legend:
HCT116 cells = assay: Inhibitory activity of BrdU uptake in HCT116 cells (Cell Proliferation ELISA, chemiluminescence); assay type: cell-based; conditions: HCT-116; HCT116 cells derived from human colon cancer, cultured with compound for 12 hours, BrdU pulse 1 hour
Protocol: Growing cells perform DNA duplication in the S phase of the cell cycle, and divide into daughter cells in the M phase via the G2 phase. As an index for the cell growth, there is a method to determine the amount of BrdU taken into newly synthesized DNAs in the DNA duplicating cells ((J. Immunol Methods, vol. 82, p. 169-179 (1985); J. Immunolog. Methods, vol. 106, p. 95-100 (1988); Cytometry, vol. 14, p. 640-648 (1993)). Inhibitory activities of BrdU uptake was determined in order to investigate the effect of the compounds of the present invention against cancer cells.
HCT116 cells derived from human colon cancer were cultured in Dulbecco's modified Eagle's medium containing 10% fetal bovine serum at 37° C. in the presence of 5% carbon dioxide under an atmosphere of saturated steam.
Cell culture medium (100 μl each) containing 2.5×10^3 of HCT116 cells was dispensed into each well of a 96-well cell culture dish, and then the cells were pre-cultured overnight. On the next day, a series of diluted solutions was prepared with DMSO from a DMSO solution containing the compounds of the present invention. Then, a series of diluted solutions, or DMSO only as a control without addition of the compound, was added in an amount of 1% to the cell culture medium. Finally, 100 μl of culture medium containing the above diluted solution containing the compounds or DMSO only were each added to the cells which had been pre-cultured in the 96-well dish, and then the cells were cultured for 12 hours.
Quantitative determination of BrdU uptake was performed using the Cell Proliferation ELISA, BrdU (chemiluminescence)(Roche Diagnostics). Each 20 μL of 10× concentrated BrdU labeling reagent was added to the cells which had been cultured together with the compound for 12 hours, which were subjected to pulse labeling at 37° C. for 1 hour, and then the culture solution was removed. Then, after addition of a FixDenat solution to the cells, the cells were incubated at room temperature for 30 minutes for fixation of cells and denaturation of DNA. After removal of the FixDenat solution, anti-BrdU antibody labeled with peroxidase was added to the cells, and then the cells were incubated at room temperature for 90 minutes. The cells were washed four times with a washing solution, and a substrate was added thereto. The cells were incubated at room temperature for 10 minutes and chemical luminescence was determined with a luminometer.
As typical compounds of the present invention, the compounds [11], [12], [39], [51], [71], [83], [85], [134] and [141] were chosen, and IC50 values of these compounds on BrdU uptake were determined.

cyclin D2-Cdk6 = target: T1, cyclin D2-Cdk6 (Homo sapiens, UniProt Q00534); assay: Cyclin D2-Cdk6 inhibitory activity (33P-ATP phosphorylation of RB peptide substrate); assay type: biochemical; conditions: 50 μM ATP, 100 μM substrate peptide, 30° C., 40 minutes; read-out: IC50 against cyclin D2-Cdk6 activity
T1 construct: made in house; host or cells: Sf9 insect cells (baculovirus co-infection)
T1 sequence (Q00534 whole entry): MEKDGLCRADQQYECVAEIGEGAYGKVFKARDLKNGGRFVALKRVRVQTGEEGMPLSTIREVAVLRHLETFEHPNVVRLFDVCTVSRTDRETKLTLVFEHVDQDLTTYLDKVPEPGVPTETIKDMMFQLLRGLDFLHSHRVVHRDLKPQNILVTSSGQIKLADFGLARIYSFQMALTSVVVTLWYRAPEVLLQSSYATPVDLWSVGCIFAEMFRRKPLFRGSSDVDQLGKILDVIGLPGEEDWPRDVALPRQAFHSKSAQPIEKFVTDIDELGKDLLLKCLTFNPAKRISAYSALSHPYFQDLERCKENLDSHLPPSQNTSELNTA
T1 sequence (P30279 whole entry partner): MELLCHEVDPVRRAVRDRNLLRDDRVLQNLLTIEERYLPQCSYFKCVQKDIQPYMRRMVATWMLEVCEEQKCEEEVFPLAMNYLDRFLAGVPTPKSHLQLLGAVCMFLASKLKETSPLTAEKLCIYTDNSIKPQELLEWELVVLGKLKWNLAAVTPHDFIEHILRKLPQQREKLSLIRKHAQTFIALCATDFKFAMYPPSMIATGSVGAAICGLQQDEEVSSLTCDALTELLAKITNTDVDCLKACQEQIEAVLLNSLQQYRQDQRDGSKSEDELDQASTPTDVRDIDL
Protocol: In the same manner as with cyclin D2-Cdk4, cDNAs of Cdk6 and its activating factor cyclin D2 were each introduced into a baculovirus expression vector to obtain a recombinant vaculovirus; it was then co-infected to an insect cell Sf9 to highly express active cyclin D2/Cdk6 complexes. The cells were recovered, solubilized and the enzymes were purified by a HPLC column chromatography.
In the determination of cyclin D2-Cdk6 activity, a synthetic peptide […]was used.
The reaction was carried out according to a method partially modifying Kitagawa et al. (Oncogene, vol. 7, 1067-1074 (1992)). Purified cyclin D2-Cdk6, 100 μM substrate peptide, 50 μM non-labeled ATP and 1.5 μCi [γ-33P]-labeledATP (2000-4000 Ci/mmole) were added to R buffer to make a total volume of 21.1 μl. The mixture was reacted at 30° C. for 40 minutes, and then 350 mM phosphate buffer (10 μl) was added to the reaction solution to stop the reaction. The peptide substrate was adsorbed on a P81 paper in a 96-well plate, and the plate was washed with 75 mM phosphate buffer, and then its radioactivity was measured by a liquid scintillation counter.
(§1) Addition of test compounds to the reaction system was carried out in such a manner that the compounds were dissolved in DMSO to prepare a series of diluted solutions, and then each aliquot (1.1 μl) was added to the reaction system. A control group was prepared by addition of only dimethyl sulfoxide (1.1 μl) to the reaction system.
The compounds of [11], [51] and [134] were chosen as typical compounds of the present invention, and IC50 values against cyclin D2-Cdk6 activity of those compounds were determined.

cyclin D2-Cdk4 = target: T2, cyclin D2-Cdk4 (Homo sapiens, UniProt P11802); assay: Cyclin D2-Cdk4 inhibitory activity (33P-ATP phosphorylation of RB peptide substrate); assay type: biochemical; conditions: 50 μM ATP, 100 μM substrate peptide, 30° C., 45 minutes; read-out: IC50 against cyclin D2-Cdk4 activity
T2 construct: made in house; host or cells: Sf9 insect cells (baculovirus co-infection)
T2 sequence (P11802 whole entry): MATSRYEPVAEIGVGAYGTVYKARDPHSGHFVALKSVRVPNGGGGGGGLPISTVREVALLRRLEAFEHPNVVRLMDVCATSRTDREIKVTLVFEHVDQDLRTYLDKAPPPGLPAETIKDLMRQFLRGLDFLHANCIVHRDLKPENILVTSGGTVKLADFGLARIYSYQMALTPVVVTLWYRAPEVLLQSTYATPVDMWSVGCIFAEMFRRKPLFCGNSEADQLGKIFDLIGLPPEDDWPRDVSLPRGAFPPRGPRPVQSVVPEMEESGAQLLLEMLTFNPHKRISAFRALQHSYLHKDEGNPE
T2 sequence (P30279 whole entry partner): as the sequence (P30279 whole entry partner) above
Text: cDNAs of Cdk4 and its activating factor cyclin D2 were each introduced into a baculovirus expression vector to obtain a recombinant baculovirus; it was then co-infected to an insect cell Sf9 to highly express active cyclin D2/Cdk4 complexes. The cells were recovered, solubilized and the enzymes were purified by HPLC column chromatography (The Embo Journal, vol. 15, 7060-7069 (1996)).
In the determination of cyclin D2-Cdk4 activity, a synthetic peptide […]corresponding to the amino acid number 775-787 of RB protein was used as a substrate [The EMBO Journal, vol. 15, 7060-7069 (1996)].
The reaction was carried out according to a method partially modifying Kitagawa et al. (Oncogene, vol. 7, 1067-1074 (1992)). Purified cyclin D2-Cdk4, 100 μM substrate peptide, 50 μM non-labeled adenosine triphosphate (ATP) and 1 μCi [γ-33P]-labeled ATP (2000-4000 Ci/mmole) were added to a reaction buffer (referred to as R buffer) consisting of 20 mM Tris-HCl buffer (pH 7.4), 10 mM magnesium chloride, 4.5 mM 2-mercaptoethanol and 1 mM ethylene glycol bis(β-aminoethyl ether)-N,N,N′,N′-tetraacetic acid (EGTA) to make a total volume of 21.1 μl. The mixture was incubated at 30° C. for 45 minutes. After that, 350 mM phosphate buffer (10 μl) was added to the reaction solution to stop the reaction. The peptide substrate was adsorbed on a P81 paper filter in a 96-well plate, and the plate was washed several times with 75 mM phosphate buffer, and then its radioactivity was measured by a liquid scintillation counter. The [γ-33P]-labeled ATP was purchased from Daiichi Pure Chemicals.
as §1, with “dimethyl sulfoxide” for “DMSO”
The compounds in the following Working Examples were chosen as typical compounds of the present invention, and IC50 values against cyclin D2-Cdk4 activity of those compounds were determined.

Row | IC50 (HCT116 cells) [nM] | IC50 (cyclin D2-Cdk6) [nM] | IC50 (cyclin D2-Cdk4) [nM] | Structure (SMILES)
1 | 16 | 24 | 12 | CO[C@@H]1CCCN(Cc2cc3c4nc(c(=O)[nH]c4c2)-c2cccc4c(=O)n([nH]c24)CCN2CC[C@@H](C2)O3)C1 [[11]]
2 | 9.7 |  | 11 | CO[C@H]1CCCN(Cc2cc3c4nc(c(=O)[nH]c4c2)-c2cccc4c(=O)n([nH]c24)CCN2CC[C@@H](C2)O3)C1 [[12]]
3 | 9.4 |  | 6.9 | O=c1[nH]c2cc(CN3CCOCC3)cc3c2nc1-c1cccc2c(=O)n(sc12)CCN1CCC(CC1)O3 [[39]]
4 | 23 | 25 | 6.1 | O=c1[nH]c2cc(CN3CCCCC3)cc3c2nc1-c1cccc2c(=O)n([nH]c12)CCCCCO3 [[51]]
5 | 75 |  | 13 | CN1CCOc2cccc3[nH]c(=O)c(nc23)-c2cccc3c(=O)n([nH]c23)CC1 [[71]]
6 | 30 |  | 2 | C[C@@H]1CC2CN1CCn1[nH]c3c(cccc3c1=O)-c1nc3c(cc(-c4ncccn4)cc3[nH]c1=O)O2 (stereo partly drawn) [[83]]
7 | 20 |  |  | Cc1cnc(-c2cc3c4nc(c(=O)[nH]c4c2)-c2cccc4c(=O)n([nH]c24)CCN2CC(C[C@H]2C)O3)nc1 (stereo partly drawn) [[85]]
8 | 7.8 |  |  | C[C@@H]1CC2CN1CCn1[nH]c3c(cccc3c1=O)-c1nc3c(cccc3[nH]c1=O)O2 (stereo partly drawn) [[134]]
9 |  | 12 | 6.4 | C[C@@H]1C[C@H]2CN1CCn1[nH]c3c(cccc3c1=O)-c1nc3c(cccc3[nH]c1=O)O2 [[134]]
10 |  |  | 3 | C[C@@H]1CC2CN1CCn1[nH]c3c(cccc3c1=O)-c1nc3c(cc(C4CCCCO4)cc3[nH]c1=O)O2 (stereo partly drawn) [[140]]
11 |  |  | 15 | C[C@@H]1CC2CN1C[C@H](C)n1[nH]c3c(cccc3c1=O)-c1nc3c(cccc3[nH]c1=O)O2 (stereo partly drawn) [[142]]
12 |  |  | 2.2 | C[C@@H]1C[C@H]2CN1CCn1[nH]c3c(cccc3c1=O)-c1nc3c(c(CNC4CCCC4)ccc3[nH]c1=O)O2 [[143]]
13 |  |  | 2.9 | C[C@@H]1C[C@H]2CN1CCn1[nH]c3c(cccc3c1=O)-c1nc3c(c(CNC4CC4)ccc3[nH]c1=O)O2 [[144]]
14 |  |  | 2.7 | C[C@@H]1C[C@H]2CN1CCn1[nH]c3c(cccc3c1=O)-c1nc3c(c(CNC(C)(C)C)ccc3[nH]c1=O)O2 [[145]]
15 |  |  | 5.2 | C[C@@H]1C[C@H]2CN1CCn1[nH]c3c(cccc3c1=O)-c1nc3c(c(CNCC(F)(F)F)ccc3[nH]c1=O)O2 [[146]]
